Test results published in patent US6436445B1, “Antimicrobial and antiviral compositions containing an oxidizing species” (Ecolab Inc., priority 1999, dated 2002).
Read-outs that look alike come from different tables or passages of the source. Marks after values point to notes of the source that are not given here.

Legend:
S. aureus = assay: Log reduction of bacteria by liquid compositions, 30 second contact (S. aureus); type: cell-based; details: for Log Reduction S. aureus: vs. untreated control
Text: (§1) A variety of nitrogen sources are utilized. Results recorded include the color of the solution and the microbial log reduction of gram-positive and gram-negative bacteria (E. coli and S. aureus, respectively). As shown earlier there is a direct correlation between color of the solution and microbial efficacy. […] Looking at Table 6, there is an obvious direct correlation between color and antimicrobial activity. Table 7 compares formulas of the present invention with prior art examples for the reduction of gram-positive and gram-negative bacteria. […] Results recorded include the pH of the solution, the color of the solution and the log reduction in microbe.

E. coli ATCC 11229 = assay: Log reduction of bacteria by liquid compositions, 30 second contact (E. coli); type: cell-based; details: for Log Reduction E. coli / Log Reduction: 30 second contact time; for Log Reduction E. coli: vs. untreated control; for Log Reduction: E. coli
Text: as §1

[1] = test system: Penicillium expansum (ATCC 7861); assay: Mold spore suspension test, exposure, neutralization, plating on Sabouraud Dextrose agar; type: cell-based; details: P. expansum, 15 minute contact time
Feline parvovirus = details: cited from earlier work
[2] = test system: Total bacterial flora on prerigor beef tissue surfaces; assay: Microbial reduction on prerigor beef tissue surfaces, 30 second treatment; type: cell-based
[3] = published results against Feline parvovirus
[4] = Actives Conc. 300 ppm, 30 second exposure

[I-].[K+] [KI, potassium iodide]
Log Reduction S. aureus (S. aureus; 30 second contact time): 0 log
Log Reduction E. coli (E. coli ATCC 11229): 0 log
Log Reduction ([1]; N-source:H2O2:KI 0:0:500 ppm, pH 5): 0.0* log

cocoa dimethyl betaine
Log Reduction S. aureus (S. aureus; 30 second contact time): 0 log
Log Reduction E. coli (E. coli ATCC 11229): 0 log

[Na+].[O-]Cl [NaOCl]
Minimum Concentration (for 10-minute inactivation) (Feline parvovirus; [3]): 2,000 ppm

cocodimethyl betaine
Log Reduction S. aureus (S. aureus; 30 second contact time): 0 log
Log Reduction E. coli (E. coli ATCC 11229): 0 log

CC(O)C(=O)O (centres unmarked) [lactic acid]
Log Reduction ([2]; Active Antimicrobial 5000 ppm, treated 30 seconds, drained 10 minutes, relative to untreated starting meat carcass): 0.8 log

C[N+](C)(C)CCO.[Cl-] [choline chloride]
Log Reduction S. aureus (S. aureus; 30 second contact time): 0 log
Log Reduction (Z. bailii; N-source:H2O2:KI 300:0:0 ppm, pH 7, 30 second contact time): 0.0 log
Log Reduction E. coli (E. coli ATCC 11229): 0 log
Log Reduction (E. coli ATCC 11229; N-source:H2O2:KI 300:0:0 ppm, pH 7): 0.0 log

O=CCCCC=O [Glutaraldehyde]
Minimum Concentration (for 10-minute inactivation) (Feline parvovirus; published, (2-log)): 10,000

CCCCCCCCCC[N+](C)(C)CCCCCCCCCC.[Cl-] [didecyl dimethyl ammonium chloride]
Log Reduction (Z. bailii; N-source:H2O2:KI 20:0:0 ppm, pH 3, 30 second contact time): 0.1 log
Log Reduction ([1]; N-source:H2O2:KI 100:0:0 ppm, pH 7): 1.0* log

CCO [Ethanol]
Minimum Concentration (for 10-minute inactivation) (Feline parvovirus; [3]): 500,000 ppm

Oc1ccccc1-c1ccccc1 [o-phenylphenol G, o-phenylphenol]
Minimum Concentration (for 10-minute inactivation) (Feline parvovirus; [3]): 100,000 ppm

OO [Formula H2O2, hydrogen peroxide]
Log Reduction S. aureus (S. aureus; 30 second contact time): 0 log
Log Reduction (CFU/ml) S. aureus (S. aureus; [4]): 0.4 log CFU/ml
Log Reduction (S. aureus; S. aureus, N-source:H2O2:KI 0:300:0 ppm, pH 5, 30 second contact time): 0.4 log
Log Reduction (Z. bailii; N-source:H2O2:KI 0:532:0 ppm, pH 3, 30 second contact time): 0.1 log
Log Reduction (Z. bailii; N-source:H2O2:KI 0:532:0 ppm, pH 5, 30 second contact time): 0.1 log
Log Reduction (Z. bailii; N-source:H2O2:KI 0:532:0 ppm, pH 7, 30 second contact time): 0.1 log
Log Reduction E. coli (E. coli ATCC 11229): 0.2 log
Log Reduction (CFU/ml) E. coli (E. coli ATCC 11229; [4]): 0.2 log CFU/ml
Log Reduction (E. coli ATCC 11229; N-source:H2O2:KI 0:300:0 ppm, pH 5): 0.2 log
Log Reduction ([1]; N-source:H2O2:KI 0:532:0 ppm, pH 5): 0.0* log

CCCCCCCCCCCCCCCC[n+]1ccccc1 [cetyl pyridinium chloride]
Log Reduction [2]: 0.5 log

CCCCCCCC[N+](C)(C)[O-] [C8 amine oxide, Octyl dimethyl aznine oxide]
Log Reduction S. aureus (S. aureus; 30 second contact time): 0 log
Log Reduction E. coli (E. coli ATCC 11229): 0 log

CC(C)O [IPA]
Minimum Concentration (for 10-minute inactivation) (Feline parvovirus; [3]): 500,000 ppm
